# In patent US12473276B2, “Compound having neuroprotective effect, preparation method therefor and use thereof” (Shanghai Zhimeng Biopharma, Inc., priority 2019, dated 2025):
# “And” between values parts separate entries of the source, which are not always exact repeats. Equal entries are not always repeated.
# Test system: rat focal cerebral ischemia-reperfusion model (Middle cerebral artery occlusion, MCAO)
# Assay: Protective effect on focal cerebral ischemia reperfusion (MCAO) in rats: cerebral infarction area by TTC staining
# Assay type: in vivo, Sprague Dawley (SD) rat
# Settings: for Cerebral infarction area in rats (%): 2.0 h ischemia then reperfusion, mean ± standard error; for Effect on reducing the cerebral infarct area in model rats compared with the model group (significance): P<0.05 significant; for Compared with the model group, the reduced proportion of cerebral infarction area in the compound group: versus model group of the same test
# Experimental: Sprague Dawley (SD) rat, male, SPF grade, weight 250-280 g
# • Compounds 04007, 04015, 04041, 04047, 04050 and 04089 • Commercially available edaravone injection, products of Nanjing Simcere dongyuan pharmaceutical Co., Ltd, specifications 10 mg/mL 1.3 Experimental Method 1.3.1 Preparation of Focal Cerebral Ischemia-Reperfusion Model
# The rat focal cerebral ischemia-reperfusion model (Middle cerebral artery occlusion, MCAO) was prepared by internal carotid artery suture method. Rats were injected intraperitoneally with 7% chloral hydrate (6.0 mL/kg), and the depth of anesthesia was appropriate for severe stimulation of animals with slight reaction. The anesthetized rats were tightened with rubber bands on the limbs (the hind limbs were fixed above the knee joint, and the forelimbs were fixed above the wrist joint) and the head, and the animals were fixed on the operating table in the supine position, and the animal shaver was used from the head end to the chest to shave hair, and the skin was disinfected with alcohol. The neck was cut in the middle and the subcutaneous tissue was blunt separated. […] The arterial shell was opened, the right carotid bifurcation was exposed, and the right common carotid artery, external carotid artery, internal carotid artery were separated, the vagus nerve was gently peeled off, the external carotid artery was ligated and cut off. The end of the common carotid artery proximity to the heart was clamped, and an incision was made from the distal end of the ligature line of the external carotid artery, suture was inserted and entered into the internal carotid artery through the bifurcation of the common carotid artery, and then slowly inserted until there was slight resistance (about 20 mm from the bifurcation), all blood supply of the middle cerebral artery was blocked. The suture was slightly fixed with the silk under the incision of the external carotid artery, the clamping silk at the end of the common carotid artery proximity to the heart was loosen, the wound surface was covered with gauze soaked with disinfected normal saline, and the rats were kept warm by placing on the heat preservation mat. After right cerebral ischemia for 2.0 h, the suture was gently pulled out, blood supply was restored for reperfusion, the external carotid artery was ligated with the silk fixing the suture, the skin was sutured, and disinfected.
# The experimental animals were divided into model group, edaravone group (6 mg/kg) and compound to be tested group (5 mg/kg ration of compound to be tested: 5% DMAC+5% Solutol HS 15+90% Saline were used to prepare a solution with a concentration of 1 mg/mL.
# After the ischemia model was prepared, the animals were assigned to each group in a single blind with equal probability. The animals were administered intravenously once immediately after reperfusion, and the animals in the model group were given the same volume of normal saline. The animals were sacrificed 24 hours after ischemia, the brain was taken, stained and photographed to determine the area of cerebral infarction.
# The degree of cerebral infarction was determined by TTC, staining. After the evaluation of the symptoms of neurological defects in animals was completed, the animals were killed with CO2, the brain was taken by decapitation, the olfactory bulb, cerebellum and low brainstem were removed, blood stains on the surface of the brain were washed with normal saline, residual water stains on the surface were sucked out, and placed at −20° C. for 20 min. Immediately after taking out, the coronal section was made vertically downward at the intersection plane of the line of sight, and cut a slice every 2 mm backwards, the brain slices were incubated in 1% TTC dye solution (37° C. for 20 min). The normal brain tissue was dyed crimson, while the ischemic brain tissue was pale. […]
# [1] = compound 5 mg/kg intravenously once immediately after reperfusion, measured 24 hours after ischemia
# [2] = compound 5 mg/kg versus edaravone 6 mg/kg
Compound,Cerebral infarction area in rats (%) [1],Effect on reducing the cerebral infarct area in model rats compared with the model group (significance) (compound 5 mg/kg i.v.),"Compared with the model group, the reduced proportion of cerebral infarction area in the compound group (compound 5 mg/kg i.v.)",Efficacy compared with the positive control drug edaravone group [2],"Cerebral infarction area in rats (%) (compound 0.5 mg/kg intravenously once immediately after reperfusion, measured 24 hours after ischemia)",Effect on reducing the cerebral infarct area in model rats compared with the model group (significance) (compound 0.5 mg/kg i.v.),"Compared with the model group, the reduced proportion of cerebral infarction area in the compound group (compound 0.5 mg/kg i.v.)",Efficacy compared with the positive control drug edaravone group (compound 0.5 mg/kg versus edaravone 6 mg/kg),"Cerebral infarction area of rats in edaravone group in the same test(%) (edaravone 6 mg/kg intravenously once immediately after reperfusion, measured 24 hours after ischemia, one value per test run)"
CCOC(=O)c1ccc(Cn2c(=S)oc3c(Cl)cc(Cl)cc32)cc1O [Compound 04041],30.37 ± 4.36%,significantly reduce the cerebral infarct area,37%,equivalent or better efficacy,–,–,–,–,–
CC(C)OC(=O)c1ccc(N2COc3c(Cl)cc(Cl)cc3C2)cn1 [Compound 04047],35.47 ± 5.34%,no significant effect on reducing the cerebral infarct area,15%,–,–,–,–,–,–
C#CCCOC(=O)c1ccc(N2Cc3cc(Cl)cc(Cl)c3OC2=S)cn1 [Compound 04050],30.97 ± 4.33%,significantly reduce the cerebral infarct area,26%,equivalent or better efficacy,–,–,–,–,–
CCOCCOC(=O)c1ccc(N2Cc3cc(Cl)cc(Cl)c3OC2=S)cn1 [Compound 04089],–,–,–,–,27.80 ± 2.22%,significantly reduce the cerebral infarct area,34%,equivalent or better efficacy,–
"CC1=NN(c2ccccc2)C(=O)C1 [edaravone, reference compound]",–,–,–,–,–,–,–,–,32.08% and 27.44% and 28.47% and 32.45%
CN1CC(OC(=O)c2ccc(N3Cc4cc(Cl)cc(Cl)c4OC3=S)cn2)C1 [Compound 04007],35.41 ± 3.71%,significantly reduce the cerebral infarct area,26%,equivalent or better efficacy,–,–,–,–,–
